Measurements from patent US20100035871A1, “BENZOXAZINE DERIVATIVES AND USES THEREOF” (priority 2006, published 2010).
Counter-ions that a name gives are not always drawn.

molecular target: T1, human 5-HT2C receptor (Homo sapiens, UniProt P28335); assay: 5-HT2C receptor binding, [125I]DOI displacement, membranes of transfected CHO cells; conditions: read-out: 5-HT2C Binding Ki avg
T1 construct: expressed in transfected cells; host or cells: CHO (Chinese Hamster Ovary) cells; membrane preparation
T1 sequence (P28335 33-458): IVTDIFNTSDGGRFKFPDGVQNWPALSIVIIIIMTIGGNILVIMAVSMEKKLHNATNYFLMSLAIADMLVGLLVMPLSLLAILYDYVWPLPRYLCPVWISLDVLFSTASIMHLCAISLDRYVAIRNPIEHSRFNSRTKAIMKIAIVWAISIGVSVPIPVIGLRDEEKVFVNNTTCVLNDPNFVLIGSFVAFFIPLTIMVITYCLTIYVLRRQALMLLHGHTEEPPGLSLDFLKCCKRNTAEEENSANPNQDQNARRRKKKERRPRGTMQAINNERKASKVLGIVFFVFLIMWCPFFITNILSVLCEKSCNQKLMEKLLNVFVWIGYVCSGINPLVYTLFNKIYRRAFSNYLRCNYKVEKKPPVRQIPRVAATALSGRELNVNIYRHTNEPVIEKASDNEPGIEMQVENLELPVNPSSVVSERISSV

Row | Ki | Compound
1 | 131 nM | COc1ccc(-c2cccc3c2O[C@H](CN)CN3)c(Cl)c1 [Example 46, 1-[(2R)-8-(2-chloro-4-methoxyphenyl)-3,4-dihydro-2H-1,4-benzoxazin-2-yl]methanamine]
2 | 497 nM | NCC1COc2cc(F)cc(-c3cccc(Cl)c3)c2N1 (racemic) [Example 65, 1-[5-(3-chlorophenyl)-7-fluoro-3,4-dihydro-2H-1,4-benzoxazin-3-yl]methanamine]
3 | 143 nM | COc1ccc(-c2cccc3c2O[C@H](CN)CN3)c(C)c1 [Example 44, 1-[(2R)-8-(4-methoxy-2-methylphenyl)-3,4-dihydro-2H-1,4-benzoxazin-2-yl]methanamine]

test system: not given; assay: not given; conditions: not given

Row | melting point | Compound
4 | 104 °C (dec.) | CN1CC(CN)Oc2c(-c3ccccc3F)cccc21 (racemic) (as salt: hydrochloride) [Example 7, 1-[8-(2-Fluorophenyl)-4-methyl-3,4-dihydro-2H-1,4-benzoxazin-2-yl]methanamine]
5 | 222 °C (dec.) | COc1ccc(-c2cccc3c2O[C@@H](CN)CN3)c(C)c1 (as salt: hydrochloride) [Example 50, 1-[(2S)-8-(4-methoxy-2-methylphenyl)-3,4-dihydro-2H-1,4-benzoxazin-2-yl]methanamine]
6 | 130 °C (dec.) | NCC1CNc2cccc(-c3cc(Cl)ccc3Cl)c2O1 (racemic) (as salt: hydrochloride) [Example 14, 1-[8-(2,5-Dichlorophenyl)-3,4-dihydro-2H-1,4-benzoxazin-2-yl]methanamine]
7 | 135 °C (dec.) | NC[C@@H]1CNc2cccc(-c3ccccc3Cl)c2O1 (as salt: hydrochloride) [Example 40, 1-[(2R)-8-(2-chlorophenyl)-3,4-dihydro-2H-1,4-benzoxazin-2-yl]methanamine]
8 | 186 °C (dec.) | NC[C@@H]1CNc2cccc(-c3ccccc3F)c2O1 (as salt: hydrochloride) [Example 43, 1-[(2R)-8-(2-fluorophenyl)-3,4-dihydro-2H-1,4-benzoxazin-2-yl]methanamine]
9 | 105 to 106 °C | CCN1CC(CN)Oc2c(-c3ccccc3Cl)cccc21 (racemic) (as salt: hydrochloride) [Example 19, 1-[8-(2-Chlorophenyl)-4-ethyl-3,4-dihydro-2H-1,4-benzoxazin-2-yl]methanamine]
10 | 102 °C (dec.) | NCC1COc2cc(Cl)cc(-c3ccccc3C(F)(F)F)c2N1 (racemic) (as salt: hydrochloride) [Example 25, 1-{7-Chloro-5-[2-(trifluoromethyl)phenyl]-3,4-dihydro-2H-1,4-benzoxazin-3-yl}methanamine]
11 | 211 °C (dec.) | COc1ccc(-c2cccc3c2O[C@H](CN)CN3)c(Cl)c1 (as salt: hydrochloride) [Example 46, 1-[(2R)-8-(2-chloro-4-methoxyphenyl)-3,4-dihydro-2H-1,4-benzoxazin-2-yl]methanamine]
12 | 195 to 197 °C | Cc1ccccc1-c1cccc2c1OC(CN)CN2 (racemic) (as salt: hydrochloride) [Example 17, 1-[8-(2-Methylphenyl)-3,4-dihydro-2H-1,4-benzoxazin-2-yl]methanamine]
13 | 82 °C (dec.) | COc1ccc(-c2cc(F)cc3c2NC(CN)CO3)c(C)c1 (racemic) (as salt: hydrochloride) [Example 56, 1-[7-fluoro-5-(4-methoxy-2-methylphenyl)-3,4-dihydro-2H-1,4-benzoxazin-3-yl]methanamine]
14 | 80 °C (dec.) | CN1CC(CN)Oc2c(-c3ccccc3Cl)cccc21 (racemic) (as salt: hydrochloride) [Example 11, 1-[8-(2-Chlorophenyl)-4-methyl-3,4-dihydro-2H-1,4-benzoxazin-2-yl]methanamine]
15 | 192 to 194 °C | Cc1cc(Cl)ccc1-c1cccc2c1OC(CN)CN2 (racemic) (as salt: hydrochloride) [Example 20, 1-[8-(4-chloro-2-methylphenyl)-3,4-dihydro-2H-1,4-benzoxazin-2-yl]methanamine]
16 | 192 to 194 °C | NCC1CNc2cccc(-c3ccc(C(F)(F)F)cc3C(F)(F)F)c2O1 (racemic) (as salt: hydrochloride) [Example 23, 1-{8-[2,4-Bis(trifluoromethyl)phenyl]-3,4-dihydro-2H-1,4-benzoxazin-2-yl}methanamine]
17 | 135 to 136 °C | NCC1CNc2cc(F)cc(-c3c(Cl)cccc3Cl)c2O1 (racemic) (as salt: hydrochloride) [Example 10, 1-[8-(2,6-Dichlorophenyl)-6-fluoro-3,4-dihydro-2H-1,4-benzoxazin-2-yl]methanamine]
18 | 98 °C (dec.) | COc1ccc(-c2cc(Cl)cc3c2NC(CN)CO3)c(C)c1 (racemic) (as salt: hydrochloride) [Example 27, 1-[7-chloro-5-(4-methoxy-2-methylphenyl)-3,4-dihydro-2H-1,4-benzoxazin-3-yl]methanamine]
19 | 84 °C (dec.) | COc1ccc(-c2cc(F)cc3c2NC(CN)CO3)c(Cl)c1 (racemic) (as salt: hydrochloride) [Example 59, 1-[5-(2-chloro-4-methoxyphenyl)-7-fluoro-3,4-dihydro-2H-1,4-benzoxazin-3-yl]methanamine]

Row | melting point | Compound
20 | 205 to 207 °C | NCC1CNc2cccc(-c3ccc(Cl)cc3C(F)(F)F)c2O1 (racemic) (as salt: hydrochloride) [Example 18, 1-{8-[4-Chloro-2-(trifluoromethyl)phenyl]-3,4-dihydro-2H-1,4-benzoxazin-2-yl}methanamine]
21 | 86 °C (dec.) | Cc1ccccc1-c1cc(Cl)cc2c1NC(CN)CO2 (racemic) (as salt: hydrochloride) [Example 30, 1-[7-chloro-5-(2-methylphenyl)-3,4-dihydro-2H-1,4-benzoxazin-3-yl]methanamine]
22 | 77 °C (dec.) | NCC1COc2cc(F)cc(-c3ccccc3F)c2N1 (racemic) (as salt: hydrochloride) [Example 62, 1-[7-fluoro-5-(2-fluorophenyl)-3,4-dihydro-2H-1,4-benzoxazin-3-yl]methanamine]
23 | 158 to 161 °C | NCC1CNc2cccc(-c3ccc(Cl)cc3Cl)c2O1 (racemic) (as salt: hydrochloride) [Example 15, 1-[8-(2,4-Dichlorophenyl)-3,4-dihydro-2H-1,4-benzoxazin-2-yl]methanamine]
24 | 196 °C (dec.) | Cc1cc(Cl)ccc1-c1cccc2c1O[C@@H](CN)CN2 (as salt: hydrochloride) [Example 48, 1-[(2S)-8-(4-chloro-2-methylphenyl)-3,4-dihydro-2H-1,4-benzoxazin-2-yl]methanamine]
25 | 105 °C (dec.) | COc1ccc(-c2cc(Cl)cc3c2NC(CN)CO3)c(Cl)c1 (racemic) (as salt: hydrochloride) [Example 32, 1-[7-chloro-5-(2-chloro-4-methoxyphenyl)-3,4-dihydro-2H-1,4-benzoxazin-3-yl]methanamine]
26 | 108 °C (dec.) | NCC1COc2cc(Cl)cc(-c3ccccc3Cl)c2N1 (racemic) (as salt: hydrochloride) [Example 36, 1-[7-chloro-5-(2-chlorophenyl)-3,4-dihydro-2H-1,4-benzoxazin-3-yl]methanamine]
27 | 98 °C (dec.) | Cc1ccc(-c2cc(Cl)cc3c2NC(CN)CO3)c(C(F)(F)F)c1 (racemic) (as salt: hydrochloride) [Example 31, 1-{7-chloro-5-[4-methyl-2-(trifluoromethyl)phenyl]-3,4-dihydro-2H-1,4-benzoxazin-3-yl}methanamine]
28 | 90 to 92 °C | COc1ccc(-c2cccc3c2OC(CN)CN3C)cc1 (racemic) (as salt: hydrochloride) [Example 6, 1-[8-(4-Methoxyphenyl)-4-methyl-3,4-dihydro-2H-1,4-benzoxazin-2-yl]methanamine]
29 | 83 to 85 °C | CCCN1CC(CN)Oc2c(-c3ccccc3Cl)cccc21 (racemic) (as salt: hydrochloride) [Example 21, 1-[8-(2-Chlorophenyl)-4-propyl-3,4-dihydro-2H-1,4-benzoxazin-2-yl]methanamine]
30 | 102 °C (dec.) | Cc1cc(Cl)ccc1-c1cc(Cl)cc2c1NC(CN)CO2 (racemic) (as salt: hydrochloride) [Example 35, 1-[7-chloro-5-(4-chloro-2-methylphenyl)-3,4-dihydro-2H-1,4-benzoxazin-3-yl]methanamine]
31 | 185 to 187 °C | NCC1CNc2cccc(-c3ccccc3C(F)(F)F)c2O1 (racemic) (as salt: hydrochloride) [Example 22, 1-{8-[2-(Trifluoromethyl)phenyl]-3,4-dihydro-2H-1,4-benzoxazin-2-yl}methanamine]
32 | 72 °C (dec.) | COc1ccc(-c2cc(F)cc3c2NC(CN)CO3)cc1 (racemic) (as salt: hydrochloride) [Example 61, 1-[7-fluoro-5-(4-methoxyphenyl)-3,4-dihydro-2H-1,4-benzoxazin-3-yl]methanamine]
33 | 90 °C (dec.) | NCC1CN(CC2CC2)c2cccc(-c3ccccc3Cl)c2O1 (racemic) (as salt: hydrochloride) [Example 12, 1-[8-(2-Chlorophenyl)-4-(cyclopropylmethyl)-3,4-dihydro-2H-1,4-benzoxazin-2-yl]methanamine]
34 | 198 °C (dec.) | COc1ccc(-c2cccc3c2O[C@@H](CN)CN3)cc1 (as salt: hydrochloride) [Example 51, 1-[(2S)-8-(4-methoxyphenyl)-3,4-dihydro-2H-1,4-benzoxazin-2-yl]methanamine]
